From article PMC3100252, “A theoretical entropy score as a single value to express inhibitor selectivity” (BMC Bioinformatics, 2011)
pKd: −log10 of the molar value. Where two headings read alike, the source gives them in different places.

What was measured:
[1] = system: 290 kinases (excluding mutants); format: binding; conditions: for Ka-Gini: Gini score calculated directly on Kas of the Ambit dataset (Kds of ref 5); for entropies (selectivity entropy, Ssel): calculated from Kds of the Ambit dataset (ref 5)
Text: Having defined the entropy, we next investigated its performance relative to the most widely-used methods, on a public profiling dataset of 38 inhibitors on 290 non-mutant kinases (Table 1 and Additional file 1). […] To this we added a Ka-Gini value and the selectivity entropy. The Ka-Gini is a Gini score directly calculated on Kas, without reverting to %-inhibition values (see below). […] In addition, to get an overview of the profiling raw data, we appended an activity-based heat map (Uitdehaag_S1).
(§1) It is worth to note that the partition coefficient is the same as ϕl in our entropy equation (eq. 2).
The Gini score was calculated from data on %-inhibition. […] In addition, to work more directly with Kds, we also introduce a Ka-Gini score, in which association constants are used for rank-ordering the kinase profile. […] All calculations were done in Microsoft Excel. […]

[2] = system: 290 kinases (excluding mutants); conditions: cited from earlier work; for Gini: 38 inhibitors on 290 non-mutant kinases; for S10x: fraction of kinases hit at 10 times the Kd of the target
PDGFRβ = conditions: Ambit profiling raw data; cited from earlier work
222 human kinases = test: Millipore kinase profiling (radioactive filter binding activity assay at [ATP] = KM,ATP) and selectivity metrics calculated from it; format: biochemical; set-up: selectivity score: scale not given here; conditions: for Ka-Gini score / Pmax / S10x / selectivity score: calculated from Millipore activity data; for selectivity entropy: calculated from Millipore activity data (pEC50), [ATP] = KM,ATP
Text: As a next step we selected 16 compounds from the public profile (Ambit), and measured activity data on these using a different profiling service (Millipore, data available as Additional file 2). […] Also for these new data, we calculated the selectivity metrics (Uitdehaag_S2). In the ideal case, the selectivity values are similar irrespective of profiling technology (in the same way that a Kd value is ideally independent of laboratory and assay format). The data of both methods are plotted in Figure 2.
as §1
The Gini score was calculated from data on %-inhibition. […] In addition, to work more directly with Kds, we also introduce a Ka-Gini score, in which association constants are used for rank-ordering the kinase profile. […] All calculations were done in Microsoft Excel.
For comparing profiles across methods (Figure 2), we selected 16 kinase inhibitors of the Ambit profile (Table 2) and submitted these to the kinase profiling service from Millipore (http://www.millipore.com/drugdiscovery/svp3/kpservices, data available as Additional file 2). Both profiling methods are described earlier and differ (among other variations) in the following way: Ambit uses a competitive binding setup in absence of ATP on kinases from T7 or HEK293 expression systems. Millipore uses a radioactive filter binding activity assay, with kinases purified from Escherichia coli or baculovirus expression systems.

[3] = Ambit dataset, values taken from earlier work
[4] = Ambit dataset, fraction of kinases hit below 3 μM, values taken from earlier work
[5] = rank among 38 inhibitors, Ambit dataset

Row | Compound | Ka-Gini [1] | entropies (selectivity entropy, Ssel) ([1]; 290 kinases) | Gini [2, 3] | S10x [2, 3] | S3uM (selectivity score S(3 μM)) [2, 4] | Pmax (partition index) [2, 3] | pKd (PDGFRβ) | Ka-Gini score (222 human kinases) | Pmax (222 human kinases) | S10x (222 human kinases) | selectivity score (222 human kinases) | selectivity entropy (222 human kinases) | number of kinases inhibited below 3 μM ([1]; Ambit profile, 290 kinases) [kinases] | selectivity rank by Ka-Gini [1, 5] | selectivity rank by Pmax [1, 5] | selectivity rank by selectivity entropy [1, 5] | potencies on the 4 kinases hit with roughly equal potencies ([2]; Ambit profile, 4 kinases not named) [nM] | S3uM (selectivity score S(3 μM)) [2]
1 | Cc1[nH]c(/C=C2\C(=O)Nc3ccc(F)cc32)c(C)c1C(=O)NC[C@H](O)CN1CCOCC1 [SU-14813] | 0.97 | 2.04 | 0.70 | 0.02 | 0.51 | 0.18 | 9.54 |  |  |  |  |  |  |  |  |  |  | 
2 | Oc1cccc(-c2nc(N3CCOCC3)c3oc4ncccc4c3n2)c1 [PI-103] | 0.99 | 0.05 | 0.41 | 0.00 |  | 0.97 |  | 0.995 | 0.561 | 0.005 | 0.014 | 0.876 |  |  |  |  |  | 
3 | COc1cc2c(N3CCN(C(=O)Nc4ccc(OC(C)C)cc4)CC3)ncnc2cc1OCCCN1CCCCC1 [MLN-518, tandutinib] | 0.98 | 1.58 | 0.74 | 0.01 |  | 0.26 |  | 0.993 | 0.621 | 0.005 | 0.032 | 1.300 | 10 | 14 | 26 | 15 | 2 to 10 | 0.06
4 | CNC(=O)c1cc(Oc2ccc(NC(=O)Nc3ccc(Cl)c(C(F)(F)F)c3)cc2)ccn1 [Sorafenib, sorafenib] | 0.97 |  | 0.82 | 0.10 |  |  |  | 0.975 | 0.149 | 0.029 |  |  |  |  |  |  |  | 
5 | Cc1cc(Nc2cc(N3CCN(C)CC3)nc(Sc3ccc(NC(=O)C4CC4)cc3)n2)[nH]n1 [VX-680, tozasertib] | 0.93 | 3.09 | 0.76 | 0.03 | 0.38 | 0.15 |  | 0.972 | 0.278 | 0.020 | 0.199 | 2.625 |  |  |  |  |  | 
6 | O=c1ncn2nc(Sc3ccc(F)cc3F)ccc2c1-c1c(Cl)cccc1Cl [VX-745] | 0.99 | 0.28 | 0.51 | 0.00 | 0.03 | 0.92 |  | 0.997 | 0.820 | 0.005 |  | 0.590 |  |  |  |  |  | 
7 | Cc1ccc(-n2nc(C(C)(C)C)cc2NC(=O)Nc2ccc(OCCN3CCOCC3)c3ccccc23)cc1 [BIRB-796, doramapimod] | 0.99 |  | 0.81 |  |  |  |  | 0.984 | 0.440 | 0.011 |  |  |  |  |  |  |  | 
8 | O=C(O)c1ccc(Nc2ncc3c(n2)-c2ccc(Cl)cc2C(c2c(F)cccc2F)=NC3)cc1 [MLN-8054] | 0.97 | 1.95 | 0.75 | 0.01 | 0.13 | 0.36 |  | 0.980 | 0.617 | 0.002 | 0.154 | 1.903 |  |  |  |  |  | 
